11 molecules from ChEMBL document CHEMBL1201862, “PubChem BioAssay data set” (2004) can be followed below.

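In this assay, cells in 96-well plates receive the compound at five concentrations for 48 hours. Endpoints are linearly interpolated between the surrounding concentrations. Abbreviation: GI50, concentration required for 50% inhibition of growth.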 Active and inactive are the calls of the source. No stated cut-off is given here; in the data, active = GI50 up to about 1.1 µM and inactive = higher.

Some test systems named below: ACHN; HCT-15; SNB-19; OVCAR-4; NCI-H23; CCRF-CEM; MDA-MB-435; HOP-62; 786-0; RXF 393; A549; K562; MDA-N; OVCAR-3; Hs-578T; A498; MOLT-4; Malme-3M; U-251; NCI/ADR-RES.
What all share (experiment): NCI anticancer screen, dose series, 48 h

For the molecule `CC1CCC2(OC1)OC1CC3C4CC=C5CC(OC6OC(CO)C(OC7OC(C)C(OC8OC(C)C(O)C(O)C8O)C(O)C7O)C(O)C6OC6OC(C)C(O)C(O)C6O)CCC5(C)C4CCC3(C)C1C2C` (stereo not drawn), the GI50 is 1.47 µM (inactive) in the assay on ACHN; 1.51 µM with HCT-15; 0.262 µM (active) in the assay with SNB-19; 0.275 µM (active) in the assay with OVCAR-4; 1.66 µM (inactive) in the assay with NCI-H23; 0.0643 µM (active) with CCRF-CEM. Moreover, the GI50 in the assay on MDA-MB-435 is 0.281 µM (active); in the assay with HOP-62, 2.56 µM (inactive); in the assay on 786-0 it was 1.07 µM (active); in the assay with RXF 393, 0.583 µM (active); in the assay on A549 it was 0.312 µM (active); in the assay with K562 it was 0.142 µM (active). Also, the GI50 with MDA-N is 0.4 µM (active); with OVCAR-3, 1.75 µM (inactive); in the assay on Hs-578T it was 0.264 µM (active); in the assay with A498, 0.291 µM (active); in the assay on MOLT-4, 0.237 µM (active); with Malme-3M, 0.363 µM (active). Further, the GI50 with U-251 is 0.65 µM (active).
Regarding `CN1c2ccccc2C(=O)NC12CCNCC2`, the GI50 in the assay on ACHN, in the assay on SNB-19, in the assay with OVCAR-4, in the assay with NCI-H23, with CCRF-CEM and in the assay with MDA-MB-435 was > 100 µM (inactive) each time. The GI50 with HOP-62, in the assay on 786-0, with RXF 393, in the assay on A549, with K562 and in the assay with NCI/ADR-RES was > 100 µM (inactive) in each case. Further, the GI50 was 0.082 µM (active) in the assay with Hs-578T; > 100 µM (inactive) in the assay on A498; > 100 µM (inactive) with MOLT-4; > 100 µM (inactive) with Malme-3M; > 100 µM (inactive) with U-251.
Regarding `CN(C)c1ccc(/C=N/Nc2nc3ccccc3c(=O)n2-c2ccccc2)cc1`, the GI50 in the assay with ACHN was 67.3 µM (inactive); in the assay on HCT-15, greater than 100 µM; in the assay with SNB-19, 34.9 µM (inactive); with OVCAR-4, 15.9 µM (inactive); with NCI-H23 it was > 100 µM (inactive); in the assay with CCRF-CEM, > 100 µM (inactive). For the same molecule, the GI50 in the assay on MDA-MB-435 is > 100 µM (inactive); in the assay with HOP-62, 33.3 µM (inactive); with 786-0, 23.7 µM (inactive); in the assay with RXF 393 it was 50.8 µM (inactive); with A549, > 100 µM (inactive); in the assay with K562, > 100 µM (inactive). Moreover, the GI50 in the assay with MDA-N was 74.3 µM (inactive); in the assay with NCI/ADR-RES, 63.1 µM (inactive); in the assay on OVCAR-3, 27 µM (inactive); in the assay with A498, 63.2 µM (inactive); in the assay with MOLT-4 it was > 100 µM (inactive); in the assay with Malme-3M it was 43.1 µM (inactive). Further, in the assay on U-251, the GI50 was 34 µM (inactive).
With `O=c1[nH]c2ccc([N+](=O)[O-])c(Cl)c2c2ccccc12`, the GI50 with ACHN is 4.48 µM (inactive); in the assay with HCT-15, 3.56 µM; with SNB-19 it was 1.91 µM (inactive); in the assay on OVCAR-4 it was 10.7 µM (inactive); in the assay on NCI-H23 it was 5.87 µM (inactive); with CCRF-CEM, 0.361 µM (active). For the same molecule, the GI50 with MDA-MB-435 is 2.1 µM (inactive); in the assay on HOP-62, 10.8 µM (inactive); in the assay on 786-0, 5.78 µM (inactive); in the assay with A549 it was 4.7 µM (inactive); in the assay with K562, 0.634 µM (active); in the assay on NCI/ADR-RES, 4.98 µM (inactive). Besides, the GI50 in the assay on OVCAR-3 was 3.72 µM (inactive); with Hs-578T, 3.86 µM (inactive); in the assay on A498 it was 13.2 µM (inactive); in the assay with MOLT-4 it was 0.91 µM (active); with Malme-3M, 11.6 µM (inactive); in the assay with U-251, 4.43 µM (inactive).
`N#CC(=S)Nc1cccc(Cl)c1`: the GI50 with ACHN is 26.2 µM (inactive); in the assay on HCT-15 it was 27.9 µM; in the assay on SNB-19 it was 54.5 µM (inactive); in the assay with OVCAR-4, 42.4 µM (inactive); in the assay on NCI-H23 it was 31.4 µM (inactive); with CCRF-CEM it was 30 µM (inactive). Moreover, the GI50 was 33.1 µM (inactive) with MDA-MB-435; 43.8 µM (inactive) in the assay with HOP-62; 40.5 µM (inactive) with 786-0; 26 µM (inactive) in the assay with RXF 393; 23.8 µM (inactive) in the assay on A549; 19.5 µM (inactive) in the assay on K562. In addition, the GI50 in the assay on MDA-N is 44.3 µM (inactive); in the assay on NCI/ADR-RES it was 30.7 µM (inactive); with OVCAR-3 it was 16 µM (inactive); in the assay on A498 it was 34.1 µM (inactive); in the assay on MOLT-4, 34 µM (inactive); in the assay on Malme-3M it was 30.3 µM (inactive). Also, in the assay with U-251, the GI50 is 34.8 µM (inactive).
As for `CC12CC3CC/C(=N\O)C(C1)C3(N1CCOCC1)C/C2=N/O` (stereo not drawn), the GI50 with ACHN is > 100 µM (inactive); in the assay with HCT-15, greater than 100 µM; in the assay on SNB-19, > 100 µM (inactive); in the assay on OVCAR-4 it was > 100 µM (inactive); with NCI-H23, > 100 µM (inactive); in the assay on CCRF-CEM it was > 100 µM (inactive). For the same molecule, the GI50 in the assay with MDA-MB-435, with HOP-62, in the assay on 786-0, with RXF 393, with A549 and in the assay on K562 was > 100 µM (inactive) in each case. Also, the GI50 in the assay with MDA-N, in the assay on NCI/ADR-RES, with OVCAR-3, with A498, in the assay on MOLT-4 and in the assay on Malme-3M was > 100 µM (inactive) throughout. Further, in the assay with U-251, the GI50 is > 100 µM (inactive).
On to `COc1cc2c(cc1OCCCCOc1cc3nc(C)nc(Cl)c3cc1OC)N=C[C@@H]1CCCN1C2=O`, for which the GI50 was 1.94 µM (inactive) in the assay on ACHN; 1.43 µM with HCT-15; 17.4 µM (inactive) in the assay on SNB-19; 2.84 µM (inactive) in the assay on OVCAR-4; 1.82 µM (inactive) with NCI-H23; 1.62 µM (inactive) in the assay with MDA-MB-435. Further, the GI50 in the assay on HOP-62 is 2.67 µM (inactive); in the assay with 786-0 it was 3.12 µM (inactive); in the assay on RXF 393 it was 2.12 µM (inactive); in the assay with A549, 2.79 µM (inactive); in the assay on K562, 2.07 µM (inactive); in the assay with NCI/ADR-RES, 2.27 µM (inactive). Moreover, the GI50 in the assay with OVCAR-3 is 2.06 µM (inactive); in the assay with Hs-578T, 1.99 µM (inactive); in the assay with MOLT-4, 1.7 µM (inactive); in the assay with Malme-3M, 1.79 µM (inactive); in the assay with U-251, 1.26 µM (inactive).
In the case of `CCOC(=O)CSc1nnc(CSc2nc(-c3ccccc3)c(-c3ccccc3)[nH]2)n1-c1ccccc1`, the GI50 is 18.3 µM (inactive) with ACHN; greater than 100 µM with HCT-15; > 100 µM (inactive) with SNB-19; 22.1 µM (inactive) in the assay with OVCAR-4; > 100 µM (inactive) in the assay on NCI-H23; > 54 µM (inactive) with CCRF-CEM. Further, the GI50 was > 100 µM (inactive) in the assay on HOP-62; 24.6 µM (inactive) with 786-0; 22.5 µM (inactive) in the assay on RXF 393; > 100 µM (inactive) in the assay with A549; > 100 µM (inactive) with K562; 75.3 µM (inactive) in the assay with MDA-N. The GI50 in the assay with NCI/ADR-RES was 61.9 µM (inactive); with OVCAR-3, > 100 µM (inactive); in the assay on A498 it was 17.9 µM (inactive); in the assay with MOLT-4 it was > 49.8 µM (inactive); in the assay on Malme-3M, > 69.2 µM (inactive); with U-251, > 100 µM (inactive).
In the case of `O=S(=O)(c1cc(Cl)ccc1Cl)n1ccnc1`, the GI50 was 76.7 µM (inactive) in the assay on ACHN; 24.7 µM in the assay with HCT-15; 70.8 µM (inactive) with SNB-19; 43 µM (inactive) in the assay on OVCAR-4; 20.9 µM (inactive) in the assay with NCI-H23; 37.3 µM (inactive) in the assay with CCRF-CEM. The GI50 with MDA-MB-435 is 18.2 µM (inactive); with HOP-62 it was 48 µM (inactive); with 786-0, 54.2 µM (inactive); in the assay on RXF 393, 28 µM (inactive); with A549, 58.2 µM (inactive); with K562 it was 34 µM (inactive). The GI50 was 20.2 µM (inactive) in the assay on NCI/ADR-RES; 46.9 µM (inactive) in the assay with OVCAR-3; 51.4 µM (inactive) in the assay with Hs-578T; 31 µM (inactive) in the assay with A498; 32.6 µM (inactive) with MOLT-4; 31.8 µM (inactive) in the assay on Malme-3M. Moreover, in the assay with U-251, the GI50 is 33 µM (inactive).
On to `C=C1C(=O)[C@@]23CC[C@@H]4[C@@]5(C)CCC[C@@]4(OC5=O)C2(C)CC[C@]1(OC)C3` (stereo partly drawn), for which the GI50 was 1.77 µM (inactive) in the assay on ACHN; 0.581 µM in the assay on HCT-15; 1.83 µM (inactive) with SNB-19; 1.45 µM (inactive) in the assay with NCI-H23; 0.0605 µM (active) in the assay with CCRF-CEM; 1.32 µM (inactive) in the assay on MDA-MB-435. Moreover, the GI50 in the assay on HOP-62 was 1.17 µM (inactive); in the assay on 786-0, 0.279 µM (active); in the assay on A549, 3.27 µM (inactive); with K562 it was 0.0993 µM (active); in the assay on MDA-N, 0.52 µM (active); in the assay with NCI/ADR-RES, 1.45 µM (inactive). The results for the GI50 in the assay on OVCAR-3, with Hs-578T and with MOLT-4 were 1.01 µM (active), 1.96 µM (inactive) and 0.238 µM (active), respectively.
Regarding `CCOP(=O)(/C=C/n1cc(C)c(=O)[nH]c1=O)OCC`, the GI50 in the assay on ACHN was > 100 µM (inactive); with HCT-15, greater than 100 µM; in the assay with SNB-19, > 100 µM (inactive); in the assay on OVCAR-4, > 100 µM (inactive); in the assay with NCI-H23 it was > 100 µM (inactive); in the assay on CCRF-CEM, > 100 µM (inactive). For the same molecule, the GI50 with MDA-MB-435, in the assay with HOP-62, in the assay on 786-0, in the assay on RXF 393, in the assay on A549 and in the assay with K562 was > 100 µM (inactive) each time. The GI50 in the assay on MDA-N, in the assay with NCI/ADR-RES, in the assay with OVCAR-3, with A498, in the assay on MOLT-4 and in the assay with U-251 was > 100 µM (inactive) throughout.
